In BindingDB's records for doi:10.7270/Q2F47MKR (Burnham Center For Chemical Genomics, 2010) one finds IC50 data, which are given here for 51 compounds.

A value given as a limit tells only on which side of the number the result lay.

One test can be described thus: GPR35 antagonists, SAR follow-up, imaging, image-based, set 2 (AID 2480).
Conditions: not given
Usually IC50 stands for the concentration that inhibits the measured activity by half. Compound `O=C(CCCN1C(=O)S/C(=C/C=C/c2ccccc2)C1=O)Nc1ccc(C(=O)O)cc1` [4-[4-[(5E)-2,4-dioxo-5-[(E)-3-phenylprop-2-enylidene]-1,3-thiazolidin-3-yl]butanoylamino]benzoic acid] displayed an IC50 of 1.17 µM. Still for that read-out and setting: the value for `CC(/C=C1\SC(=S)N(CCCC(=O)Nc2ccc(C(=O)O)cc2)C1=O)=C\c1ccccc1` [4-[4-[(5Z)-5-[(E)-2-methyl-3-phenyl-prop-2-enylidene]-4-oxidanylidene-2-sulfanylidene-1,3-thiazolidin-3-yl]butanoylamino]benzoic acid] was 0.105 µM; that for `Cc1c(C(=O)Nc2ccc3c(c2)OCCO3)sc2ncnc(N3CCCCC3C)c12` (stereo unspecified) [MLS-0359029.0001] was more than 32 µM; that for `Cc1ccc(Cn2ncc3c(N4CCN(c5ccccc5C)CC4)ncnc32)cc1` [1-(4-methylbenzyl)-4-[4-(2-methylphenyl)-1-piperazinyl]-1H-pyrazolo[3,4-d]pyrimidine] was 2.65 µM. Same read-out and setting: the value for `CCc1ccc(/C=C2\SC(=S)N(CCCC(=O)Nc3ccc(C(=O)O)cc3)C2=O)cc1` [SMR000646238] was 0.0718 µM; that for `O=C(CCCN1C(=O)S/C(=C/c2ccccc2)C1=S)Nc1ccc(C(=O)O)cc1` [MLS001167691] was 1.6 µM; that for `O=C(CCCN1C(=O)/C(=C/c2ccc3c(c2)OCO3)SC1=S)Nc1cccc(C(=O)O)c1` [3-[[4-[(5Z)-5-(1,3-benzodioxol-5-ylmethylidene)-4-oxo-2-sulfanylidene-3-thiazolidinyl]-1-oxobutyl]amino]benzoic acid] was 0.983 µM. `O=C(CCCN1C(=O)/C(=C\c2ccccc2)SC1=S)Nc1ccc(C(=O)O)cc1` [4-[[1-oxo-4-[(5E)-4-oxo-5-(phenylmethylene)-2-sulfanylidene-3-thiazolidinyl]butyl]amino]benzoic acid] registered an IC50 of 1.68 µM. Still for that read-out and setting: the result for `O=C(CCCN1C(=O)/C(=C/c2ccc3c(c2)OCO3)SC1=S)Nc1ccc(C(=O)O)c(O)c1` [4-[[4-[(5Z)-5-(1,3-benzodioxol-5-ylmethylidene)-4-oxo-2-sulfanylidene-3-thiazolidinyl]-1-oxobutyl]amino]-2-hydroxybenzoic acid] reads 0.3 µM; that for `Cc1c(C(=O)Nc2ccc3c(c2)OCCO3)sc2ncnc(N3CCC(C)CC3)c12` [N-(2,3-dihydro-1,4-benzodioxin-6-yl)-5-methyl-4-(4-methyl-1-piperidinyl)-6-thieno[2,3-d]pyrimidinecarboxamide], 4.07 µM. On to `CCC(Sc1nc2ccsc2c(=O)n1Cc1ccc(C(=O)O)cc1)C(=O)Nc1ccc(Cl)cc1` (stereo unspecified) [MLS-0435427.0001], for which the IC50 was more than 32 µM. The compound `Cn1cc(/C=C/c2cc[n+](C)cc2)c2cc(Cl)ccc21` [5-chloranyl-1-methyl-3-[(E)-2-(1-methylpyridin-1-ium-4-yl)ethenyl]indole;hydroiodide] registered an IC50 of 5.17 µM. Still for that read-out and setting: the result for `O=C(Nc1ccc2nc(SCc3ccccc3)sc2c1)c1ccccc1C(=O)N1CCOCC1` [2-[4-morpholinyl(oxo)methyl]-N-[2-(phenylmethylthio)-1,3-benzothiazol-6-yl]benzamide] reads 1.61 µM; that for `O=C(CCCN1C(=O)/C(=C/c2ccccc2)SC1=S)Nc1ccc(O)cc1` [N-(4-hydroxyphenyl)-4-[(5Z)-4-oxo-5-(phenylmethylene)-2-sulfanylidene-3-thiazolidinyl]butanamide], 8.71 µM; that for `CCc1ccc(NC(=O)CSc2nc3ccsc3c(=O)n2Cc2ccc(OC)cc2)cc1` [N-(4-ethylphenyl)-2-[[3-[(4-methoxyphenyl)methyl]-4-oxo-2-thieno[3,2-d]pyrimidinyl]thio]acetamide], more than 32 µM. The same measure, in the same setting: the result for `O=C(Nc1ccc2nc(SCc3ccc(Cl)c(Cl)c3)sc2c1)c1ccccc1Br` reads more than 32 µM; that for `Cc1ccc2[nH]c(C)c(/C=C/c3cc[n+](C)cc3)c2c1`, 2.36 µM; that for `COc1ccc(/C=C2/SC(=S)N(CCCC(=O)Nc3ccc(O)cc3)C2=O)cc1` [N-(4-hydroxyphenyl)-4-[(5E)-5-[(4-methoxyphenyl)methylidene]-4-oxidanylidene-2-sulfanylidene-1,3-thiazolidin-3-yl]butanamide], 1.07 µM. As for `CCOC(=O)c1ccc(NC(=O)CCCN2C(=O)/C(=C/c3ccc(C)cc3)SC2=S)cc1` [MLS-0435416.0001], the IC50 is 2.6 µM. Compound `COc1ccc(Cn2c(SCC(=O)Nc3ccc(C)c(C)c3)nc3ccsc3c2=O)cc1` registered an IC50 of more than 32 µM. The same measure, in the same setting: the value for `Cc1c(C(=O)Nc2ccc3c(c2)OCCO3)sc2ncnc(O)c12` [N-(2,3-dihydro-1,4-benzodioxin-6-yl)-5-methyl-4-oxo-3H-thieno[2,3-d]pyrimidine-6-carboxamide] was more than 32 µM; that for `Cc1ccccc1OCCC(=O)NCCc1ccc(S(N)(=O)=O)cc1` [MLS-0213188.0001] was more than 32 µM. The same measure, in the same setting: the value for `COc1cccc(/C=C2\SC(=S)N(CCCC(=O)Nc3ccc(C(=O)O)cc3)C2=O)c1` [4-[4-[(5Z)-5-[(3-methoxyphenyl)methylidene]-4-oxo-2-sulfanylidene-1,3-thiazolidin-3-yl]butanoylamino]benzoic acid] was 0.651 µM. Same read-out and setting: the result for `COc1ccc(/C=C2\SC(=S)N(CCCC(=O)Nc3ccc(C(=O)O)c(O)c3)C2=O)cc1OC` [4-[4-[(5Z)-5-[(3,4-dimethoxyphenyl)methylidene]-4-oxo-2-sulfanylidene-1,3-thiazolidin-3-yl]butanoylamino]-2-hydroxybenzoic acid] reads 0.151 µM; that for `O=C(CCCN1C(=O)/C(=C/c2ccccc2)SC1=S)Nc1ccc(C(=O)O)c(O)c1` [4-[4-[(5Z)-5-benzylidene-4-oxo-2-sulfanylidene-1,3-thiazolidin-3-yl]butanoylamino]-2-hydroxybenzoic acid], 0.295 µM; that for `Cc1ccc(OCCC(=O)NCCc2ccc(S(N)(=O)=O)cc2)cc1` [MLS-0213737.0001], more than 32 µM. Turning to `O=C(Nc1ccc2nc(SCc3ccc(Cl)cc3)sc2c1)c1ccccc1C(=O)N1CCOCC1`, the IC50 turned out to be 0.554 µM. On to `Cc1nc(N2CCC(C)CC2)c2c(C)c(C(=O)Nc3ccc(C)c(F)c3)sc2n1` [MLS-0244945.0001], for which the IC50 was 6.1 µM.

For `COC(=O)CSc1nc2ccc(NC(=O)c3ccccc3C(=O)N3CCOCC3)cc2s1` [methyl 2-[[6-[(2-morpholin-4-ylcarbonylphenyl)carbonylamino]-1,3-benzothiazol-2-yl]sulfanyl]ethanoate], the IC50 was more than 32 µM. Still for that read-out and setting: the value for `O=C(CCCN1C(=O)/C(=C\c2ccccc2)SC1=S)Nc1cccc(C(=O)O)c1` [3-[4-(5-Benzylidene-4-oxo-2-thioxo-thiazolidin-3-yl)-butyrylamino]-benzoic acid] was 1.6 µM. For the compound `O=C(CCCN1C(=O)/C(=C/c2ccc3c(c2)OCO3)SC1=S)Nc1ccc(C(=O)O)cc1` [SMR000664854], the IC50 was 1.18 µM. As for `Fc1ccc(N2CCN(c3ncnc4c3cnn4Cc3ccc(Cl)cc3Cl)CC2)cc1` [MLS-0435440.0001], the IC50 was more than 32 µM. Take `O=C(CCCN1C(=O)S/C(=C\C=C\c2ccccc2)C1=O)Nc1ccc(C(=O)O)cc1` [MLS000948015]: the IC50 came out at 1.17 µM. Still for that read-out and setting: the result for `C=CCn1c(C)c(/C=C/c2cc[n+](C)cc2)c2ccccc21` [2-methyl-3-[(E)-2-(1-methyl-4-pyridin-1-iumyl)ethenyl]-1-prop-2-enylindole;iodide] reads 4.99 µM. The same measure, in the same setting: the result for `Cc1ccc(C)c(OCCC(=O)NCCc2ccc(S(N)(=O)=O)cc2)c1` reads more than 32 µM. Still for that read-out and setting: the value for `CC(C)(C)c1ccc(OCCC(=O)NCCc2ccc(S(N)(=O)=O)cc2)cc1` [MLS001151090] was 2.23 µM. Consider `Clc1ccc(Cn2ncc3c(N4CCN(c5cccc(Cl)c5)CC4)ncnc32)cc1` [1-[(4-chlorophenyl)methyl]-4-[4-(3-chlorophenyl)piperazin-1-yl]pyrazolo[3,4-d]pyrimidine], for which the IC50 is more than 32 µM.

In the case of `Cc1ccc(/C=C2\SC(=S)N(CCCC(=O)Nc3ccc(O)cc3)C2=O)cc1` [MLS000777252], the IC50 came out at 1.42 µM. As for `Cc1ccc(/C=C2\SC(=S)N(CCCC(=O)Nc3cccc(C(=O)O)c3)C2=O)cc1` [MLS001034563], 0.24 µM corresponded to half-maximal inhibition (IC50). Still for that read-out and setting: the value for `CCOC(=O)c1ccc(NC(=O)CCCN2C(=O)/C(=C/c3ccccc3)SC2=S)cc1` [ethyl 4-[4-[(5Z)-5-benzylidene-4-oxo-2-sulfanylidene-1,3-thiazolidin-3-yl]butanoylamino]benzoate] was 8.63 µM; that for `COc1ccc(/C=C2\SC(=S)N(CCCC(=O)Nc3cccc(C(=O)O)c3)C2=O)cc1OC` [3-[4-[(5Z)-5-[(3,4-dimethoxyphenyl)methylidene]-4-oxidanylidene-2-sulfanylidene-1,3-thiazolidin-3-yl]butanoylamino]benzoic acid] was 0.607 µM.

Compound `COc1ccc(-c2nnc(-c3cccnc3)o2)cc1` [2-(4-methoxyphenyl)-5-pyridin-3-yl-1,3,4-oxadiazole] registered an IC50 of more than 32 µM. Still for that read-out and setting: the value for `Clc1ccc(Cn2ncc3c(N4CCN(c5ccccc5)CC4)ncnc32)cc1` was 7.17 µM; that for `CCC(Sc1nc2ccsc2c(=O)n1Cc1ccc(C(=O)O)cc1)C(=O)Nc1ccc(C)c(Cl)c1` (stereo unspecified) was more than 32 µM. On the same count and under the same terms, the value for `CC(C)COc1ccc(-c2nnc(-c3ccc(Cl)nc3)o2)cc1` [MLS-0435441.0001] was more than 32 µM.

Still in this test, the particulars now being: inactive by the depositor's call.
`O=C(CCCN1C(=O)/C(=C\c2ccccc2)SC1=S)Nc1ccc(O)cc1` [N-(4-hydroxyphenyl)-4-[(5E)-4-oxidanylidene-5-(phenylmethylidene)-2-sulfanylidene-1,3-thiazolidin-3-yl]butanamide] yielded an IC50 of 11.8 µM.

The compound `CCOc1ccc(NC(=O)CSc2nc3ccsc3c(=O)n2Cc2ccc(C(=O)O)cc2)cc1` had an IC50 of 12.5 µM. `c1ccc(Cn2ncc3c(N4CCN(c5ccccc5)CC4)ncnc32)cc1` [1-(phenylmethyl)-4-(4-phenylpiperazin-1-yl)pyrazolo[3,4-d]pyrimidine] displayed an IC50 of 17 µM. The same measure, in the same setting: the result for `O=C(CCCN1C(=O)/C(=C\c2cccs2)SC1=S)Nc1ccc(O)cc1` [N-(4-hydroxyphenyl)-4-[(5E)-4-oxo-2-sulfanylidene-5-(thiophen-2-ylmethylidene)-1,3-thiazolidin-3-yl]butanamide] reads 11 µM; that for `O=C(CCCN1C(=O)/C(=C/c2cccs2)SC1=S)Nc1ccc(O)cc1`, 10.7 µM. The same measure, in the same setting: the value for `Cc1ccc(Cn2ncc3c(N4CCN(c5ccc(C)cc5)CC4)ncnc32)cc1` was 17.7 µM.
